Numbers after ± are expanded uncertainties.
Settings: 298.15 K, 101.33 kPa, Liquid; for viscosity: Capillary tube (Ostwald / Ubbelohde) method; for speed of sound: Sing-around technique in a fixed-path interferometer; for mass density: Vibrating tube method

viscosity | speed of sound | mass density | Compound
7.143 ± 0.041 mPa·s | 1347.5 ± 0.9 m/s | 821.794 ± 0.14 kg/m3 | CCCCCCCCO [octan-1-ol]
11.19 ± 0.062 mPa·s | 1379.8 ± 0.9 m/s | 826.47 ± 0.14 kg/m3 | CCCCCCCCCCO [decan-1-ol]
1.405 ± 0.012 mPa·s | 1671.6 ± 1.3 m/s | 892.389 ± 0.23 kg/m3 | NCCN [ethane-1,2-diamine]
4.439 ± 0.042 mPa·s | 1303.2 ± 1.7 m/s | 815.265 ± 0.41 kg/m3 | CCCCCCO [hexan-1-ol]
